# Laboratory results reported in patent US10744117B2, “PPARG modulators for the treatment of osteoporosis” (The Scripps Research Institute, priority 2014, dated 2020).
# Entries after “also recorded” stand apart in the source; their conditions may differ.
# Experiments:
# [1] = tested on: PPARG; assay: Cell-based transactivation assay, 3xPPRE-luciferase reporter co-transfected with PPARG in COS-1 cells; settings: PPRE-luciferase
# [2] = tested on: DIO C57BL/6 mice; assay: Bone and marrow fat study in diet induced obesity (DIO) C57BL/6 mice on HFD, 4 wks; assay type: in vivo, mouse; settings: 25 mg/kg/d
# Method: The compound IA-48 (SR10171) acts as an antagonist to PPARy pro-adipocytic activity, and it has been further tested in vivo for its effect on bone. SR10171 was administered to hyperglycemic C57BL/6 mice, 12 wks old males, that were purchased from the Jackson Laboratories (Bar Harbor, Me.). DIO mice: Animals were fed ad libitum for 11 wks high fat diet (HFD) providing 45 kcal % from fat (D12451; Research Diets, New Brunswick, N.J.) to develop diet induced obesity (DIO).
# In parallel, a group of sex- and age-matched control (n=5) was fed regular diet (RD) providing 12 kcal % from fat (2016 Teklad Global, Harlan Laboratories, Indianapolis, Ind.). […]
# Fat and lean mass were evaluated at the beginning and at the end of experiment using a Minispec mq10 NMR analyzer (Bruker, Billerica, Mass.). Glucose disposal (glucose tolerance test, GTT) was measured after ip injection of 2 g/kg glucose to animals fasted for 4 hrs. Blood glucose was measured using the AlphaTRAK system appropriate for mice (Abbott Laboratories, North Chicago, Ill.). For indirect calorimetry, mice were evaluated in metabolic cages (CLAMS; Columbus Instruments, Columbus, Ohio) for 4 days with a free access to food and water. […] After one day adaptation, oxygen (VO2) consumption, carbon dioxide (VCO2) production, physical activity, and heat production were measured to determine energy expenditure. […]
# [3] = tested on: lean C57BL/6 mice; assay: Bone study in lean C57BL/6 mice on regular diet, 8 weeks; assay type: in vivo, mouse; settings: supplemented RD
# Method: In parallel, a group of sex- and age-matched control (n=5) was fed regular diet (RD) providing 12 kcal % from fat (2016 Teklad Global, Harlan Laboratories, Indianapolis, Ind.). […] The animal treatment and care protocols conformed to the NIH Guidelines and were performed under the University of Toledo Health Science Campus Institutional Animal Care and Utilization Committee protocol.
# Fat and lean mass were evaluated at the beginning and at the end of experiment using a Minispec mq10 NMR analyzer (Bruker, Billerica, Mass.). Glucose disposal (glucose tolerance test, GTT) was measured after ip injection of 2 g/kg glucose to animals fasted for 4 hrs. Blood glucose was measured using the AlphaTRAK system appropriate for mice (Abbott Laboratories, North Chicago, Ill.). For indirect calorimetry, mice were evaluated in metabolic cages (CLAMS; Columbus Instruments, Columbus, Ohio) for 4 days with a free access to food and water. Mice were housed individually at room temperature (22C) under an alternating 12-h light/dark cycle. After one day adaptation, oxygen (VO2) consumption, carbon dioxide (VCO2) production, physical activity, and heat production were measured to determine energy expenditure. Respiratory exchange ratio was calculated as a ratio of […]. […]
# [4] = tested on: obese mice fed a high fat diet; assay: Glucose tolerance test in mice on RD or HFD (FIG. 7); assay type: in vivo, mouse; settings: mice fasted, bolus of glucose, plasma glucose over time
compound,measurement,setting,value
"CN(CCOc1ccc(CC2SC(=O)NC2=O)cc1)c1ccccn1 (centres unmarked) [Rosiglitazone, rosiglitazone]",activation of the reporter,[1],about 5 fold
same,decrease of trabecular bone mass,[2],70%
same,bone marrow fat content (osmium staining),[2]; trabecular region of tibia,significant fat accumulation in the bone marrow; also recorded: significantly increased fat content in the bone marrow
same,loss of trabecular bone mass,[3],30%
same,glucose tolerance / glucose disposal,[4],insulin sensitization effects and improved glucose disposal
